Data reported in patent US20200138023A1, “MICROBICIDAL COMPOSITION” (DDP Specialty Electronic Materials US 8, LLC, priority 2017, published 2020).
Read-outs that look alike come from different tables or passages of the source.

Assays:
[1] = test system: Aspergillus brasiliensis ATCC 16404; test: Synergy test, high resolution MIC microtiter plate assay, Potato Dextrose Broth; assay type: cell-based; conditions: A. brasiliensis ATCC 16404, PDB, contact time 7 days; for SI (Synergy Index, Qa/QA+Qb/QB): SI less than one = synergy; for MIC: Aspergillus brasiliensis, ATCC16404, 168 h, 25° C.
Excerpt: (§1) One measure of synergism is the industrially accepted method described by Kull, F. C.; Eisman, P. C.; Sylwestrowicz, H. D. and Mayer, R. L., in Applied Microbiology 9:538-541 (1961), using the ratio determined by the formula:
(§2) Qa/QA+Qb/QB=Synergy Index (“SI”)
(§3) wherein: • QA=concentration of compound A (first component) in ppm, acting alone, which produced an end point (MIC of Compound A). • Qa=concentration of compound A in ppm, in the mixture, which produced an end point. • QB=concentration of compound B (second component) in ppm, acting alone, which produced an end point (MIC of Compound B). • Qb=concentration of compound B in ppm, in the mixture, which produced an end point.
(§4) When the sum of Qa/QA and Qb/QB is greater than one, antagonism is indicated. […] The lower the SI, the greater is the synergy shown by that particular mixture. The minimum inhibitory concentration (MIC) of a microbicide is the lowest concentration tested under a specific set of conditions that prevents the growth of the tested microorganisms.
(§5) Synergy tests were conducted using standard microtiter plate assays with media designed for optimal growth of the test microorganism. Potato Dextrose Broth (PDB medium) was used for testing yeast and mold. In this method, a wide range of combinations of microbicides and other personal care raw materials was tested by conducting high resolution MIC assays in the presence of lactic acid. High resolution MICs were determined by adding varying amounts of microbicide to one column of a microtitre plate and doing subsequent […] dilutions using an automated liquid handling system to obtain a series of closely spaced endpoints.
(§6) The synergy of the combinations of the present invention was determined against a yeast, Candida albicans (C. albicans—ATCC 10231) and a mold, Aspergillus brasiliensis (A. brasiliensis—ATCC 16404). The yeast and mold were used at concentrations of 5×10^5 cells per mL. These microorganisms are representative of natural contaminants in many consumer and industrial applications.
(§7) In this test, First Component (A) was lactic acid and the Second Component (B) was caprylic acid.
(§8) First Component (A)=Lactic acid (LA) Second Component (B)=Caprylic acid (CA) • Table 1: Aspergillus brasiliensis • ATCC 16404 • Potato Dextrose Broth • Contact Time=7 days • Table 2: Candida albicans • ATCC 10231 • Potato Dextrose Broth • Contact Time=48 hours

[2] = test system: Candida albicans ATCC 10231; test: as above; assay type: cell-based; conditions: C. albicans ATCC 10231, PDB, contact time 48 hours
Excerpt: as §1, §2, §3, §4, §5, §6, §7, §8

CCCCCCCC(=O)O [Caprylic Acid, octanoic acid]
SI (Synergy Index, Qa/QA+Qb/QB) [1]: 1.00 | MIC ([1]; caprylic acid alone, read-out: Caprylic Acid, ppm: MIC for caprylic acid alone (QB)): 10000 µg/mL | SI (Synergy Index, Qa/QA+Qb/QB) ([2]; SI less than one = synergy): 1.00 | MIC ([2]; Candida albicans, ATCC10231, caprylic acid alone, 25° C., read-out: Caprylic Acid, ppm: MIC for caprylic acid alone (QB)): 60 µg/mL

CC(O)C(=O)O (stereo not drawn) [Lactic Acid, 2-hydroxypropanoic acid]
SI (Synergy Index, Qa/QA+Qb/QB) [1]: 1.00 | MIC ([1]; lactic acid alone, read-out: Lactic Acid, ppm: MIC for lactic acid alone (QA)): 30000 µg/mL
